Assay results as given in patent US4001409A, “Injectable formulations of 7-[D-α-amino-α-(p-hydroxyphenyl)acetamido]-3-(1,2,3-triazol- 5-ylthiomethyl)-3-cephem-4-carboxylic acid” (priority 1975, dated 1977).
In brackets after ≈: the same amount, converted by molar mass. Several values for one entry are separate records, joined by “and”; a condition that tells them apart may be missing. Identical values can stand only once. Counter-ions that a name gives are not always drawn. Like-named read-outs stand apart in the source and are kept apart here.

What was measured:
pH of solution = assay type: physicochemical
physchem = conditions: water
[1] = Solubility in water / concentration of true solutions
[2] = system: Gram-positive and Gram-negative organisms; conditions: oral and parenteral; cited from earlier work
[3] = known forms; cannot be administered intravenously; cited from earlier work
[4] = Stability of aqueous solutions; assay type: physicochemical; conditions: alkaline pH, i.e. pH~7.0 or higher
Text: A. Stability of Aqueous Solutions of Amorphous
Monohydrate and Sodium Levulinate Mixture at […]

vein and muscle = conditions: in vivo
Heat stability of solids = assay type: physicochemical; conditions: for Stability (loss): 1 month at 56° C., 43800 min; for Heat stability (loss): Procedure D
Sal. enteritidis A9531 = assay: Minimum Inhibitory Concentration, tube dilution; assay type: cell-based; conditions: Salmonella enterica
Ent. cloacae A9656 = assay: Minimum Inhibitory Concentration, tube dilution; conditions: Enterobacter cloacae
Ent. cloacae A9659 = assay: Minimum Inhibitory Concentration, tube dilution; conditions: Enterobacter cloacae
Str. pyogenes A9604 = assay: Minimum Inhibitory Concentration, tube dilution; assay type: cell-based; conditions: Streptococcus pyogenes
Text: *50% Nutrient Broth - 45% Antibiotic Assay Broth

Ser. marcescens A20019 = assay: Minimum Inhibitory Concentration, tube dilution; conditions: Serratia marcescens
E. coli Juhl A15119 = assay: Minimum Inhibitory Concentration, tube dilution; conditions: Escherichia coli, JUHLA15119
S. aureus BX1633-2 A9606 = assay: Minimum Inhibitory Concentration, tube dilution; assay type: cell-based; conditions: Staphylococcus aureus
K. pneumoniae A15130 = assay: Minimum Inhibitory Concentration, tube dilution; conditions: Klebsiella pneumoniae
Pr. mirabilis A9900 = assay: Minimum Inhibitory Concentration, tube dilution; conditions: Proteus mirabilis
Pr. morganii A15153 = assay: Minimum Inhibitory Concentration, tube dilution; conditions: Morganella morganii
[5] = system: S. aureus meth.-resist. A15097; assay: Minimum Inhibitory Concentration, tube dilution; assay type: cell-based; conditions: Staphylococcus aureus
Ps. aeruginosa A9843A = assay: microbe, parasite or virus in culture; conditions: Pseudomonas aeruginosa
S. aureus Smith A9537 = assay: Minimum Inhibitory Concentration, tube dilution; assay type: cell-based; conditions: Staphylococcus aureus, at 10^-^4 dilution, overnight, 37° C.
E. coli A9675 = assay: Minimum Inhibitory Concentration, tube dilution; assay type: cell-based; conditions: Escherichia coli
Ent. cloacae A9657 = assay: Minimum Inhibitory Concentration, tube dilution; conditions: Enterobacter cloacae
K. pneumoniae A9977 = assay: Minimum Inhibitory Concentration, tube dilution; conditions: Klebsiella pneumoniae
[6] = Blood levels in mice after oral administration; conditions: mouse, 100 mg/kg
[7] = Blood levels in mice after intramuscular administration; conditions: mouse, im, 10 mg/kg
D. pneumoniae A9585 = assay: Minimum Inhibitory Concentration, tube dilution; conditions: Streptococcus pneumoniae
[8] = at 10^-^4 dilution, overnight, 37° C., read-out: M.I.C.
[9] = +5% serum, 50% Nutrient Broth - 45% Antibiotic Assay Broth, overnight, 37° C., read-out: M.I.C.
[10] = BX16332A9606, at 10^-^2 dil'n, overnight, 37° C.

CC(=O)CCC(=O)[O-].[Na+] [sodium levulinate]
pH (pH of solution): 6.5-8.0
solubility (physchem): > 300 mg/mL

CC(=O)C(=O)[O-].[Na+] [sodium pyruvate]
pH (pH of solution): 6.5-8.0
solubility [1]: > 500 mg/mL

N[C@@H](C(=O)NC1C(=O)N2C(C(=O)O)=C(CSc3cnn[nH]3)CS[C@H]12)c1ccc(O)cc1 (stereo partly drawn) [compound I, 7-[D-α-amino-α-(p-hydroxyphenyl)acetamido]-3-(1,2,3-triazol-5-ylthiomethyl)-3-cephem-4-carboxylic acid]
therapeutic effectiveness against infections [2]: therapeutically effective against infections caused by both Gram-positive and Gram-negative organisms
solubility in water [3]: relatively low solubility in water
splitting off of the triazole moiety at the 3-position [4]: found to split off rapidly at alkaline pH

N[C@@H](C(=O)NC1C(=O)N2C(C(=O)O)=C(CSc3cnn[nH]3)CSC12)c1ccc(O)cc1 (stereo partly drawn) [amorphous mono-hydrochloride, 7[D-α-amino-α-(p-hydroxyphenyl)acetamido]-3-(1,2,3-triazol-5-ylthiomethyl)-3-cephem-4-carboxylic acid amorphous mono-hydrochloride]
Bio-assay (Bio-assay; mono-hydrochloride): 900 µg/mg and 820 to 850 µg/mg
venous irritation and muscle damage (vein and muscle): significant venous irritation and muscle damage
Stability (loss) (Heat stability of solids; Procedure Da): Less than 10%
Stability (loss) (Heat stability of solids; Procedure Db): Less than 10%
Heat stability (loss) (Heat stability of solids; 56° C., 4 weeks, 40320 min): 1-6%
Heat stability (loss) (Heat stability of solids; 100° C., 24 hours): 7-14%
Heat stability (loss) (Heat stability of solids; 100° C., 48 hours): 10-15%

CC(=O)OCC1=C(C(=O)O)N2C(=O)[C@@H](NC(=O)Cc3cccs3)[C@H]2SC1 [Cephalothin]
MIC (Sal. enteritidis A9531; [8]): 0.06 µg/mL (≈ 0.151 µM)
MIC (Ent. cloacae A9656): > 125 µg/mL
MIC (Ent. cloacae A9659): > 125 µg/mL
MIC (Str. pyogenes A9604; [9]): 0.06 µg/mL (≈ 0.151 µM)
MIC (Ser. marcescens A20019): > 125 µg/mL
MIC (E. coli Juhl A15119): 8 µg/mL (≈ 20.2 µM)
MIC (S. aureus BX1633-2 A9606; BX16332A9606): 0.25 µg/mL (≈ 0.631 µM)
MIC (S. aureus BX1633-2 A9606; [10]): 0.25 µg/mL (≈ 0.631 µM)
MIC (K. pneumoniae A15130): 16 µg/mL (≈ 40.4 µM)
MIC (Pr. mirabilis A9900): 1 µg/mL (≈ 2.52 µM)
MIC (Pr. morganii A15153): > 125 µg/mL
MIC [5]: 4 µg/mL (≈ 10.1 µM)
MIC ([5]; at 10^-^3 dil'n, 37° C): 1 µg/mL (≈ 2.52 µM)
MIC (Ps. aeruginosa A9843A): > 125 µg/mL
MIC (S. aureus Smith A9537; SMITHA9537, +50% serum): 0.5 µg/mL (≈ 1.26 µM)
MIC (E. coli A9675): 32 µg/mL (≈ 80.7 µM)
MIC (Ent. cloacae A9657): 2 µg/mL (≈ 5.04 µM)
MIC (K. pneumoniae A9977): 2 µg/mL (≈ 5.04 µM)

N[C@@H](C(=O)NC1C(=O)N2C(C(=O)O)=C(CSc3cnn[nH]3)CSC12)c1ccc(O)cc1 (stereo partly drawn) [Cephalosporin 1,2-propylene glycolate, 7-[D-α-amino-α-(p-hydroxyphenyl)acetamido]-3-(1,2,3-triazol-5-ylthiomethyl)-3-cephem-4-carboxylic acid 1,2-propylene glycolate]
MIC (Sal. enteritidis A9531): 0.5 µg/mL (≈ 1.08 µM)
concentration at 1 h [6]: 44700 ng/mL
concentration at 2 h [6]: 26600 ng/mL
concentration at 3.5 h [6]: 9700 ng/mL
concentration at 9.5 h [6]: 45800 ng/mL
Bio-assay (Bio-assay): 880-890 units/mg.
MIC (Ent. cloacae A9656): > 125 µg/mL
MIC (Ent. cloacae A9659): 32 µg/mL (≈ 69.2 µM)
MIC (Str. pyogenes A9604; [9]): 0.03 µg/mL (≈ 0.0649 µM)
MIC (Ser. marcescens A20019): > 125 µg/mL
MIC (E. coli Juhl A15119): 1 µg/mL (≈ 2.16 µM)
concentration at 0.5 h [7]: 17400 ng/mL
concentration at 1 h [7]: 12300 ng/mL
concentration at 1.5 h [7]: 9000 ng/mL
MIC (D. pneumoniae A9585): 0.13 µg/mL (≈ 0.281 µM)
MIC (S. aureus BX1633-2 A9606; [10]): 2 µg/mL (≈ 4.32 µM)
MIC (S. aureus BX1633-2 A9606; BX16332A9606, at 10^-^3 dil'n, overnight, 37° C.): 0.5 µg/mL (≈ 1.08 µM)
MIC (K. pneumoniae A15130): 2 µg/mL (≈ 4.32 µM)
MIC (Pr. mirabilis A9900): 0.5 µg/mL (≈ 1.08 µM)
solubility in water [3]: relatively low solubility in water
MIC (Pr. morganii A15153): 32 µg/mL (≈ 69.2 µM)
MIC (Ps. aeruginosa A9843A): > 125 µg/mL
MIC (S. aureus Smith A9537; SMITHA9537, +50% serum): 2 µg/mL (≈ 4.32 µM)
MIC (S. aureus Smith A9537; SMITHA9537, read-out: M.I.C.): 0.25 µg/mL (≈ 0.541 µM)
MIC (E. coli A9675; [8]): 4 µg/mL (≈ 8.65 µM)
MIC (Ent. cloacae A9657): 1 µg/mL (≈ 2.16 µM)
MIC (K. pneumoniae A9977): 1 µg/mL (≈ 2.16 µM)

CC1=C(C(=O)O)N2C(=O)[C@@H](NC(=O)[C@H](N)c3ccccc3)[C@H]2SC1 [Cephalexin]
MIC (Sal. enteritidis A9531): 4 µg/mL (≈ 11.5 µM)
MIC (Ent. cloacae A9656): > 125 µg/mL
MIC (Ent. cloacae A9659): > 125 µg/mL
MIC (Str. pyogenes A9604): 0.5 µg/mL (≈ 1.44 µM)
MIC (Ser. marcescens A20019): > 125 µg/mL
MIC (E. coli Juhl A15119): 8 µg/mL (≈ 23 µM)
MIC (D. pneumoniae A9585): 1 µg/mL (≈ 2.88 µM)
MIC (S. aureus BX1633-2 A9606; BX16332A9606, at 10^-^3 dil'n, overnight, 37° C., read-out: M.I.C.): 2 µg/mL (≈ 5.76 µM)
MIC (K. pneumoniae A15130): 8 µg/mL (≈ 23 µM)
MIC (Pr. mirabilis A9900): 4 µg/mL (≈ 11.5 µM)
MIC ([5]; at 10^-^3 dil'n, 37° C): 16 µg/mL (≈ 46.1 µM)
MIC ([5]; at 10^-^3 dil'n, 28° C, read-out: M.I.C.): 32 µg/mL (≈ 92.1 µM)
MIC (S. aureus Smith A9537; SMITHA9537, +50% serum, read-out: M.I.C.): 2 µg/mL (≈ 5.76 µM)
MIC (S. aureus Smith A9537; SMITHA9537, read-out: M.I.C.): 1 µg/mL (≈ 2.88 µM)
MIC (E. coli A9675): 16 µg/mL (≈ 46.1 µM)
MIC (Ent. cloacae A9657): 4 µg/mL (≈ 11.5 µM)
MIC (K. pneumoniae A9977): 4 µg/mL (≈ 11.5 µM)

N[C@@H](C(=O)NC1C(=O)N2C(C(=O)O)=C(CSc3cnn[nH]3)CSC12)c1ccc(O)cc1 (stereo partly drawn) [amorphous monohydrate, 7-[D-α-amino-α-(p-hydroxyphenyl)acetamido]-3-(1,2,3-triazol-5-ylthiomethyl)-3-cephem-4-carboxylic acid amorphous monohydrate]
Bio-assay (Bio-assay; monohydrate): 900-935 units/mg.
